One assay addresses T1, Neuromedin-K receptor (Homo sapiens, UniProt P29371).
T1 sequence (P29371 whole entry): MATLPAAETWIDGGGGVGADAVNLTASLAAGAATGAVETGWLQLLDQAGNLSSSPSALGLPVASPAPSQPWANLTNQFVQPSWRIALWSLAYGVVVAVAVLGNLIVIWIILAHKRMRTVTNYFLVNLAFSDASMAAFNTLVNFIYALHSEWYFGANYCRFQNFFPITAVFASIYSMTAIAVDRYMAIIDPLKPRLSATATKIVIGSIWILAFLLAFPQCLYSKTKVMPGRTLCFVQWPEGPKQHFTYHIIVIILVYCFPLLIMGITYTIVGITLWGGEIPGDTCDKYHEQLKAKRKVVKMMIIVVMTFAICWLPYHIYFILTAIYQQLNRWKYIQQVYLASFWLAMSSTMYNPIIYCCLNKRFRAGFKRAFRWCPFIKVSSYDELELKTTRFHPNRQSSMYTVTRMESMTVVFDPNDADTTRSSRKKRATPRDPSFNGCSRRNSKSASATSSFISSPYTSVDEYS
Nature of the assay: Binding affinity towards cloned human Tachykinin receptor 3 (hNK-3) expressed in CHO cells using [125I][MePhe7]-NKB. The assay is classed as cell-based.

The next assay has as its target T2, Substance-K receptor (Homo sapiens, UniProt P21452).
T2 sequence (P21452 whole entry): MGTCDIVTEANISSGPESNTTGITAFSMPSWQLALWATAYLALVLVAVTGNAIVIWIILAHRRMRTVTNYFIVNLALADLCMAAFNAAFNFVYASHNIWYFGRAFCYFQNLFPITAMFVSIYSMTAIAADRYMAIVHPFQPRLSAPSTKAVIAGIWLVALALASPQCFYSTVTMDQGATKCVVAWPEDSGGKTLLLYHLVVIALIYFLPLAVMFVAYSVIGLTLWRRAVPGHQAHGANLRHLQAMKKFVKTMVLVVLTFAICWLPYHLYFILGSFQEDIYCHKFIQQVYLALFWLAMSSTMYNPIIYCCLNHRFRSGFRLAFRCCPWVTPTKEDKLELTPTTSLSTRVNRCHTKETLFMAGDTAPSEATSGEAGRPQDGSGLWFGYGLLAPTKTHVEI
In words: Binding affinity towards cloned human Tachykinin receptor 2 (hNK-2) expressed in CHO cells using [125I]NKA.

Another assay has as its target Substance-P receptor (Homo sapiens, UniProt P25103). In words: Binding affinity towards cloned human Tachykinin receptor 1 (hNK-1) expressed in CHO cells using [3H]substance P.
Assay [1] addresses Neuromedin-K receptor (Oryctolagus cuniculus). Nature of the assay: In vitro functional activity as antagonism of senktide-induced contractions in RISM (Rabbit Isolated Iris Sphincter Muscle) containing NK-3 receptor.

Substance-P receptor, sequence (P25103 whole entry): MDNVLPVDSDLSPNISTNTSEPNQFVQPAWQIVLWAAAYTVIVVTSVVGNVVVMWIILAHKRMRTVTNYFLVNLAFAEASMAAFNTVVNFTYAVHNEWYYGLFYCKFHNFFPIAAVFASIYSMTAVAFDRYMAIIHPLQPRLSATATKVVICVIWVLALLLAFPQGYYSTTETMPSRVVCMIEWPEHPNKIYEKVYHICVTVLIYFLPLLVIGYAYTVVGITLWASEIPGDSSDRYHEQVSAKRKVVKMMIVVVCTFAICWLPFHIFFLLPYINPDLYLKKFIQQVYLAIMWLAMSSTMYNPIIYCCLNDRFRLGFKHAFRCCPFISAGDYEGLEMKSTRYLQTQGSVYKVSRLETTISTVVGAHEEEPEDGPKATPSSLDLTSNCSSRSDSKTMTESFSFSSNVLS

Broadly, the Ki is the equilibrium dissociation constant of an inhibitor or competing ligand from its target. Higher therefore signals a looser hold on the target. Take `CCC(NC(=O)c1c(OC)c(-c2ccccc2)nc2ccccc12)c1ccccc1` (stereo not drawn): on Neuromedin-K receptor, the inhibitory constant (Ki) is 5.8 nM.
On the same count and under the same terms, then `CC(C)(NC(=O)c1cc(-c2ccccc2)nc2ccccc12)c1ccccc1`, with 295 nM.
On to `CC[C@@H](NC(=O)c1c(N)c(-c2ccccc2)nc2ccccc12)c1ccccc1`, for which the Ki on Substance-K receptor was 111 nM; on Substance-P receptor, greater than 100000 nM.
At Neuromedin-K receptor, `CCCCCCCC(NC(=O)c1cc(-c2ccccc2)nc2ccccc12)c1ccccc1` (stereo not drawn) showed a Ki of 4870 nM. This counts as single-digit micromolar.
The compound `CCC(NC(=O)c1c(NC(=O)CN(C)C)c(-c2ccccc2)nc2ccccc12)c1ccccc1` (single isomer, unassigned) gave a Ki at Neuromedin-K receptor of 10.7 nM.
Regarding `CCC(NC(=O)c1c(OCCN2CCCC2)c(-c2ccccc2)nc2ccccc12)c1ccccc1` (single isomer, unassigned), the Ki at Neuromedin-K receptor is 6.8 nM.
`CC[C@@H](NC(=O)c1c(OCCO)c(-c2ccccc2)nc2ccccc12)c1ccccc1`: the figures for the inhibition constant (Ki) on Neuromedin-K receptor, at Substance-K receptor and on Substance-P receptor were 1.5 nM, 82 nM and greater than 100000 nM, respectively.
Regarding `O=C(N[C@H](C(=O)O)c1ccccc1)c1cc(-c2ccccc2)nc2ccccc12`, the inhibitory constant (Ki) on Neuromedin-K receptor came out at 1650 nM. That is a single-digit micromolar value.
The compound `NC(=O)C(NC(=O)c1cc(-c2ccccc2)nc2ccccc12)c1ccccc1` (stereo not drawn) came in with a Ki at Neuromedin-K receptor of 983 nM.
Same read-out and setting: with `CC(C)C(NC(=O)c1cc(-c2ccccc2)nc2ccccc12)c1ccccc1` (stereo not drawn) the figure was 74.3 nM; with `CCC(NC(=O)c1c(NC(C)=O)c(-c2ccccc2)nc2ccccc12)c1ccccc1` (single isomer, unassigned), 15.9 nM.
The same measure, in the same setting: with `CC[C@@H](NC(=O)c1c(OCC(=O)N(C)C)c(-c2ccccc2)nc2ccccc12)c1ccccc1` the figure was 2.4 nM; with `O=C(NC(Cc1ccccc1)c1ccccc1)c1cc(-c2ccccc2)nc2ccccc12` (stereo not drawn), 3510 nM; with `CC(=O)C(NC(=O)c1cc(-c2ccccc2)nc2ccccc12)c1ccccc1` (stereo not drawn), 27.4 nM.
`CNC(=O)C(NC(=O)c1cc(-c2ccccc2)nc2ccccc12)c1ccccc1` (stereo not drawn) returned a Ki at Neuromedin-K receptor of 426 nM.
On the same count and under the same terms, with `CC[C@@H](NC(=O)c1c(F)c(-c2ccccc2)nc2ccccc12)c1ccccc1` the figure was 30.3 nM.
The compound `CCC(NC(=O)c1c(OCCN)c(-c2ccccc2)nc2ccccc12)c1ccccc1` (single isomer, unassigned) showed a Ki on Neuromedin-K receptor of 4.7 nM. Compared with the last compound, the Ki is about 6.4-fold lower.
The compound `CCC(NC(=O)c1c(OCCCN(C)C)c(-c2ccccc2)nc2ccccc12)c1ccccc1` (single isomer, unassigned) gave a Ki on Neuromedin-K receptor of 8.6 nM.
Turning to `CCC(NC(=O)c1c(OC)c(-c2ccccc2)nc2ccccc12)c1ccccc1` (single isomer, unassigned) [listing 1 of 2 here], the results for the Ki on Neuromedin-K receptor, on Substance-K receptor and at Substance-P receptor were 1.8 nM, 329 nM and greater than 100000 nM, respectively.
In turn, `COCC(NC(=O)c1cc(-c2ccccc2)nc2ccccc12)c1ccccc1` (stereo not drawn) gave a Ki on Neuromedin-K receptor of 314 nM.
For the compound `CCC(NC(=O)c1c(Br)c(-c2ccccc2)nc2ccccc12)c1ccccc1` (single isomer, unassigned), on Neuromedin-K receptor, the Ki is 37.2 nM. This Ki is about 8.4-fold lower than that of the compound before.
For `O=C(NC(c1ccccc1)c1ccccc1)c1cc(-c2ccccc2)nc2ccccc12`, the Ki at Neuromedin-K receptor was determined as 134 nM.
Consider `CCC(NC(=O)c1c(OCC(N)=O)c(-c2ccccc2)nc2ccccc12)c1ccccc1` (single isomer, unassigned), for which the inhibition constant (Ki) on Neuromedin-K receptor was determined as 6.3 nM.
The same measure, in the same setting: then `CCCCc1c(-c2ccccc2)nc2ccccc2c1C(=O)NC(CC)c1ccccc1` (stereo not drawn), with 15.2 nM.
The same measure, in the same setting: with `CCCCC(NC(=O)c1cc(-c2ccccc2)nc2ccccc12)c1ccccc1` (stereo not drawn) the figure was 146 nM; with `NC[C@@H](NC(=O)c1cc(-c2ccccc2)nc2ccccc12)c1ccccc1`, 1140 nM.
Regarding `CC[C@@H](NC(=O)c1cc(-c2ccccc2)nc2ccccc12)c1ccccc1`, the Ki was 237 nM at Substance-K receptor and greater than 100000 nM on Substance-P receptor.
The corresponding values for `CC[C@@H](NC(=O)c1c(C)c(-c2ccccc2)nc2ccccc12)c1ccccc1` are 277 nM and greater than 100000 nM.
In the case of `CC[C@@H](NC(=O)c1c(OCC(=O)O)c(-c2ccccc2)nc2ccccc12)c1ccccc1`, the Ki is 214 nM on Substance-K receptor and greater than 100000 nM on Substance-P receptor.
Turning to `CC[C@@H](NC(=O)c1c(CN(C)C)c(-c2ccccc2)nc2ccccc12)c1ccccc1`, the Ki on Neuromedin-K receptor was 2.2 nM; at Substance-K receptor, 172 nM; at Substance-P receptor, greater than 100000 nM.
As a reminder, the Kb is the equilibrium dissociation constant of an antagonist, usually derived from a functional assay. Low values mean higher antagonist affinity, high ones lower antagonist affinity. The compound `CCC(NC(=O)c1c(OC)c(-c2ccccc2)nc2ccccc12)c1ccccc1` (single isomer, unassigned) [listing 2 of 2 here] showed a Kb in assay [1] of 1.8 nM.
`CC(NC(=O)c1cc(-c2ccccc2)nc2ccccc12)c1ccccc1` (stereo not drawn) returned a Ki on Neuromedin-K receptor of 264 nM.
As for `CCC(NC(=O)c1c(-c2ccccc2)c(-c2ccccc2)nc2ccccc12)c1ccccc1` (stereo not drawn), affinity at Neuromedin-K receptor was put at a Ki of 45.3 nM.
On the same count and under the same terms, with `CC[C@@H](NC(=O)c1c(Cl)c(-c2ccccc2)nc2ccccc12)c1ccccc1` the figure was 29.9 nM.
Still for that read-out and setting: then `CN(C)C[C@@H](NC(=O)c1cc(-c2ccccc2)nc2ccccc12)c1ccccc1`, with 1070 nM; and `O=C(NC(c1ccccc1)C(F)(F)F)c1cc(-c2ccccc2)nc2ccccc12` (stereo not drawn), with 454 nM.
`CCCCCCc1c(-c2ccccc2)nc2ccccc2c1C(=O)NC(CC)c1ccccc1` (stereo not drawn) gave a Ki at Neuromedin-K receptor of 55.4 nM.
In the case of `COC(=O)CC(NC(=O)c1cc(-c2ccccc2)nc2ccccc12)c1ccccc1` (stereo not drawn), the Ki on Neuromedin-K receptor was 973 nM.
On the same count and under the same terms, then `CCC(NC(=O)c1c(OCCN(C)C)c(-c2ccccc2)nc2ccccc12)c1ccccc1` (single isomer, unassigned), with 5.7 nM; and `CCCC(NC(=O)c1cc(-c2ccccc2)nc2ccccc12)c1ccccc1` (stereo not drawn), with 47.2 nM.
At Neuromedin-K receptor, `O=C(NC(CCO)c1ccccc1)c1cc(-c2ccccc2)nc2ccccc12` (stereo not drawn) registered an inhibition constant (Ki) of 382 nM. This Ki lies about 8.1-fold higher than the previous one.
In the case of `CCCc1c(-c2ccccc2)nc2ccccc2c1C(=O)NC(CC)c1ccccc1` (stereo not drawn), the inhibition constant Ki at Neuromedin-K receptor was determined as 13.7 nM.
The same measure, in the same setting: with `O=C(NC1(c2ccccc2)CCCC1)c1cc(-c2ccccc2)nc2ccccc12` the figure was 129 nM.
Same read-out and setting: then `CN(C)C(=O)C(NC(=O)c1cc(-c2ccccc2)nc2ccccc12)c1ccccc1` (stereo not drawn), with 488 nM.
As for `O=C(NC(CO)c1ccccc1)c1cc(-c2ccccc2)nc2ccccc12` (stereo not drawn), the Ki on Neuromedin-K receptor amounted to 207 nM.
Still for that read-out and setting: then `CCOC(=O)COc1c(-c2ccccc2)nc2ccccc2c1C(=O)NC(CC)c1ccccc1` (single isomer, unassigned), with 2 nM.
Turning to `CCc1c(-c2ccccc2)nc2ccccc2c1C(=O)N[C@H](CC)c1ccccc1`, the inhibitory constant (Ki) at Substance-K receptor is 316 nM; on Substance-P receptor, greater than 100000 nM.
